This is an account of results in PMC4639919 (Neurochemical research, 2015).

For this assay, the target named is α6β2* nicotinic acetylcholine receptor (α6 subunit) (Rattus norvegicus, UniProt P12390+P43143).
α6β2* nicotinic acetylcholine receptor (α6 subunit), sequence (P43143 31-493 limits assumed): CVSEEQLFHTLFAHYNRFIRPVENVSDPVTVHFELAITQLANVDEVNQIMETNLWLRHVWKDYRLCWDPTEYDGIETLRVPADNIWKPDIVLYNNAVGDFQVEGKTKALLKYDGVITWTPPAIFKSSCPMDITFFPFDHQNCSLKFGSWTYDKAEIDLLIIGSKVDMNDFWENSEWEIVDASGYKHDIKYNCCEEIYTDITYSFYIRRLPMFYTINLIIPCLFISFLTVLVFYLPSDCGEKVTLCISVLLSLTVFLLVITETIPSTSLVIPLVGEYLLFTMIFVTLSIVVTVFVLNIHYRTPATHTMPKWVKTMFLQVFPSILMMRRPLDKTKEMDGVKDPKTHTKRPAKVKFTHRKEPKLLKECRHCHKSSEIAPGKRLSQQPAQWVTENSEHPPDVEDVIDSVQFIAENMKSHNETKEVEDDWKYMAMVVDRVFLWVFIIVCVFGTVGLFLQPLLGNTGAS
α6β2* nicotinic acetylcholine receptor (α6 subunit), sequence (P12390 25-500 limits assumed): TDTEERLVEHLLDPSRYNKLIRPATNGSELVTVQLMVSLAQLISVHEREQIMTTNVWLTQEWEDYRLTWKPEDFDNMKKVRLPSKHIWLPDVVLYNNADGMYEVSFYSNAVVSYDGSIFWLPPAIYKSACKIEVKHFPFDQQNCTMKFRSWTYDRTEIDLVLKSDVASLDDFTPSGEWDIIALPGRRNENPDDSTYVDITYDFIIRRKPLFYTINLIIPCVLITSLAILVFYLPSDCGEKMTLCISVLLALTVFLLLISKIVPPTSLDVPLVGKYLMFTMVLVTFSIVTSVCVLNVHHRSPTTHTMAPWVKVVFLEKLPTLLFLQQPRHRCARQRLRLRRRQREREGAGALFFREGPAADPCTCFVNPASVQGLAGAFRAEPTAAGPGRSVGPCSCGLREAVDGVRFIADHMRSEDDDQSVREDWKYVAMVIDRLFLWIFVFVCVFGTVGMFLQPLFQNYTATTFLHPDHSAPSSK

The term IC50 denotes the concentration that gives 50% inhibition. `CC1=CCCN(CCCCCCCCCCN2CCC=C(C)C2)C1` [r-bPiDI, 1,10-bis(3-methyl-5,6-dihydropyridin-1(2H)-yl)decane] yielded an IC50 of 0.0375 ± 0.0187 µM.
